Values after ≈ are worked out from the molar mass of the structure shown. Counter-ions that a name gives are not always drawn.
Columns and labels:
mouse L1210 leukemia = experiment: Prolongation of survival time of CDF1 mice inoculated intraperitoneally with L1210 leukemia cells; type: in vivo, mouse (CDF1); details: for inhibitory effects on mouse L1210 leukemia: summary statement in words
Protocol: Rhodirubin A and B show a marked antitumor activity with low toxicity in experimental animal tests and thus are therapeutically useful in inhibiting the growth of animal tumors. […] For example, CDF1 mice were inoculated intraperitoneally with 1 × 10^6 L1210 cells/mouse and 0.1-0.2 ml. of drug solution then administered intraperitoneally for 10 consecutive days. Observation was carried out for 30 days, and the % of prolongation of survival time to the control mice intraperitoneally administered with physiological saline was as follows: […]

Staph. aureus FDA 209P = experiment: Minimum inhibitory concentration, broth dilution method; type: cell-based; details: Staphylococcus aureus, FDA209P
Staph. aureus Smith = experiment: as above; type: cell-based; details: Staphylococcus aureus
B. subtilis ATCC 6633 = experiment: as above; type: cell-based; details: Bacillus subtilis, ATCC6633
B. cereus ATCC 9634 = experiment: as above; type: cell-based; details: Bacillus cereus, ATCC9634
B. megaterium NRRL-938 = experiment: as above; type: cell-based; details: Priestia megaterium, NRRL938
Sarcina lutea ATCC 9341 = experiment: as above; type: cell-based; details: Micrococcus luteus, ATCC9341
Micrococcus flavus = experiment: as above; type: cell-based
Coryne: bovis = experiment: as above; type: cell-based
[1] = tested on: Ps. fluorescens NIHJB-254; experiment: as above; type: cell-based; details: Pseudomonas fluorescens, NIHJB254
Proteus morganii = experiment: as above; type: cell-based; details: Morganella morganii
[2] = tested on: Mycobacterium smegmatis ATCC 607; experiment: as above; type: cell-based; details: Mycolicibacterium smegmatis, ATCC607
[3] = tested on: Candida albicans IAM 4905; experiment: as above; type: cell-based; details: IAM4905
[4] = tested on: Candida tropicalis IAM 4942; experiment: as above; type: cell-based; details: IAM4942
in vivo = details: mouse, ip, mice, intraperitoneal injection
Source text: The LD50 values upon intraperitoneal injection (in mice) of rhodirubin A and B are as follows: […]

gram-positive bacteria = experiment: Antimicrobial activity (summary statement); type: cell-based; details: against gram-positive bacteria
[5] = tested on: solid and ascitic forms of malignant tumors in mammals, e.g. mouse leukemia L1210; experiment: Inhibition of growth of solid and ascitic malignant tumors in mammals (summary statement); type: in vivo
mammalian tumor cells = experiment: Cytotoxicity to mammalian tumor cells in culture
[6] = Toxicity in experimental animal tests (summary statement); details: summary statement in words
animal tumor systems = details: reported in literature; cited from earlier work
[7] = in methanol, n-butanol, acetone, ethyl acetate, chloroform, toluene, benzene and dimethylsulfoxide
[8] = in water, n-hexane and petroleum ether

Row | SMILES | MIC (Staph. aureus FDA 209P) [µg/mL] | MIC (Staph. aureus Smith) [µg/mL] | MIC (B. subtilis ATCC 6633) [µg/mL] | MIC (B. cereus ATCC 9634) [µg/mL] | MIC (B. megaterium NRRL-938) [µg/mL] | MIC (Sarcina lutea ATCC 9341) [µg/mL] | MIC (Micrococcus flavus) [µg/mL] | MIC (Coryne: bovis) [µg/mL] | MIC [1] [µg/mL] | MIC (Proteus morganii) [µg/mL] | MIC [2] [µg/mL] | MIC [3] [µg/mL] | MIC [4] [µg/mL] | inhibitory effects on mouse L1210 leukemia (mouse L1210 leukemia) | LD50 (in vivo) [mg/kg] | antimicrobial activity (gram-positive bacteria) | inhibition of growth of malignant tumors [5] | Solubility (Solubility; in diethyl ether) | Solubility (Solubility; [7]) | Solubility (Solubility; [8]) | other results
1 | CCC1(O)CC(OC2CC(N(C)C)C(OC3CCC(OC4CCC(O)C(C)O4)C(C)O3)C(C)O2)c2c(cc3c(c2O)C(=O)c2c(O)ccc(O)c2C3=O)C1C(=O)OC (centres unmarked) [rhodirubin B (HC1 salt)] | – | – | – | – | – | – | – | – | – | – | – | – | – | – | – | – | – | – | – | – | Prolongation of the survival time T/C (%) (mouse L1210 leukemia; 0.6 mg./kg./day, i.p., 10 consecutive days, observed 30 days, vs physiological saline controls): 107%; Prolongation of the survival time T/C (%) (mouse L1210 leukemia; 1.25 mg./kg./day, i.p., 10 consecutive days, observed 30 days, vs physiological saline controls): 126%; Prolongation of the survival time T/C (%) (mouse L1210 leukemia; 2.5 mg./kg./day, i.p., 10 consecutive days, observed 30 days, vs physiological saline controls): 215%; Prolongation of the survival time T/C (%) (mouse L1210 leukemia; 5 mg./kg./day, i.p., 10 consecutive days, observed 30 days, vs physiological saline controls): 179%; Prolongation of the survival time T/C (%) (mouse L1210 leukemia; 8.5 mg./kg./day, i.p., 10 consecutive days, observed 30 days, vs physiological saline controls): 160%; Prolongation of the survival time T/C (%) (mouse L1210 leukemia; 10 mg./kg./day, i.p., 10 consecutive days, observed 30 days, vs physiological saline controls): 104%
2 | CCC1(O)CC(OC2CC(N(C)C)C(OC3CC(O)C(OC4CCC(O)C(C)O4)C(C)O3)C(C)O2)c2c(cc3c(c2O)C(=O)c2c(O)ccc(O)c2C3=O)C1C(=O)OC (centres unmarked) [rhodirubin A] | 1.56 (≈ 1.88 µM) | 0.4 (≈ 0.482 µM) | 0.78 (≈ 0.94 µM) | 0.2 (≈ 0.241 µM) | 0.78 (≈ 0.94 µM) | 0.4 (≈ 0.482 µM) | 0.2 (≈ 0.241 µM) | 0.2 (≈ 0.241 µM) | 100 (≈ 120 µM) | > 100 | 6.25 (≈ 7.53 µM) | > 100 | > 100 | marked inhibitory effects | 7.5 to 10 | possess antimicrobial activity, especially against gram-positive bacteria | inhibit the growth of solid and ascitic forms of malignant tumors in mammals | slightly soluble | soluble | insoluble | antimicrobial activity (gram-positive bacteria; listed as Rhodirubin A): exhibit antimicrobial activity against gram-positive bacteria; cytotoxicity (mammalian tumor cells): high cytotoxicity; toxicity [6]: low toxicity
3 | CCC1(O)CC(OC2CC(N(C)C)C(OC3CC(O)C(OC4CCC(O)C(C)O4)C(C)O3)C(C)O2)c2c(cc3c(c2O)C(=O)c2c(O)ccc(O)c2C3=O)C1C(=O)OC (centres unmarked) [rhodirubin A (HC1 salt)] | – | – | – | – | – | – | – | – | – | – | – | – | – | – | – | – | – | – | – | – | Prolongation of the survival time T/C (%) (mouse L1210 leukemia; ip, 0.6 mg/kg, 720 h): 102%; Prolongation of the survival time T/C (%) (mouse L1210 leukemia; ip, 1.25 mg/kg, 720 h): 117%; Prolongation of the survival time T/C (%) (mouse L1210 leukemia; ip, 2.5 mg/kg, 720 h): 167%; Prolongation of the survival time T/C (%) (mouse L1210 leukemia; ip, 5 mg/kg, 720 h): 195%; Prolongation of the survival time T/C (%) (mouse L1210 leukemia; ip, 8.5 mg/kg, 720 h): 121%; Prolongation of the survival time T/C (%) (mouse L1210 leukemia; ip, 10 mg/kg, 720 h): 87%
4 | CC(=O)[C@]1(O)Cc2c(O)c3c(c(O)c2[C@@H](O[C@H]2C[C@H](N)[C@H](O)[C@H](C)O2)C1)C(=O)c1c(O)cccc1C3=O [carminomycin] | – | – | – | – | – | – | – | – | – | – | – | – | – | – | – | – | – | – | – | – | activity against several animal tumor systems (animal tumor systems): active against several animal tumor systems
5 | CCC1(O)CC(OC2CC(N(C)C)C(OC3CCC(OC4CCC(O)C(C)O4)C(C)O3)C(C)O2)c2c(cc3c(c2O)C(=O)c2c(O)ccc(O)c2C3=O)C1C(=O)OC (centres unmarked) [rhodirubin B] | 1.56 (≈ 1.92 µM) | 0.78 (≈ 0.958 µM) | 1.56 (≈ 1.92 µM) | 0.4 (≈ 0.491 µM) | 1.56 (≈ 1.92 µM) | 0.78 (≈ 0.958 µM) | 0.2 (≈ 0.246 µM) | 0.4 (≈ 0.491 µM) | 100 (≈ 123 µM) | > 100 | 3.1 (≈ 3.81 µM) | > 100 | > 100 | marked inhibitory effects | 10 to 12.5 | possess antimicrobial activity, especially against gram-positive bacteria | inhibit the growth of solid and ascitic forms of malignant tumors in mammals | slightly soluble | soluble | insoluble | antimicrobial activity (gram-positive bacteria; listed as Rhodirubin B): exhibit antimicrobial activity against gram-positive bacteria; cytotoxicity (mammalian tumor cells): high cytotoxicity; toxicity [6]: low toxicity

— patent publication US4127714A, “Anthracycline glycosides” (priority 1976, dated 1978)
